Test results taken from patent publication US12257323B2, “Modified wound dressings” (CONVATEC TECHNOLOGIES INC., priority 2016, dated 2025).

What was measured:
[1] = biological target: T1, MMP-7 (Homo sapiens, UniProt P09237); settings: cited from earlier work
T1 sequence (P09237 95-267): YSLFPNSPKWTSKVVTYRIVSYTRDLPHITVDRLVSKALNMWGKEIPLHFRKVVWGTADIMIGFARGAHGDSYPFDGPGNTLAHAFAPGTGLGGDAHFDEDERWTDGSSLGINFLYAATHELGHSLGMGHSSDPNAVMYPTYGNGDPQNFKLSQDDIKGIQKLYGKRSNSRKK

[2] = biological target: MMP-9 (Homo sapiens, UniProt P14780); settings: cited from earlier work
[3] = biological target: T2, MMP-2 (Homo sapiens, UniProt P08253); settings: cited from earlier work
T2 sequence (P08253 110-660): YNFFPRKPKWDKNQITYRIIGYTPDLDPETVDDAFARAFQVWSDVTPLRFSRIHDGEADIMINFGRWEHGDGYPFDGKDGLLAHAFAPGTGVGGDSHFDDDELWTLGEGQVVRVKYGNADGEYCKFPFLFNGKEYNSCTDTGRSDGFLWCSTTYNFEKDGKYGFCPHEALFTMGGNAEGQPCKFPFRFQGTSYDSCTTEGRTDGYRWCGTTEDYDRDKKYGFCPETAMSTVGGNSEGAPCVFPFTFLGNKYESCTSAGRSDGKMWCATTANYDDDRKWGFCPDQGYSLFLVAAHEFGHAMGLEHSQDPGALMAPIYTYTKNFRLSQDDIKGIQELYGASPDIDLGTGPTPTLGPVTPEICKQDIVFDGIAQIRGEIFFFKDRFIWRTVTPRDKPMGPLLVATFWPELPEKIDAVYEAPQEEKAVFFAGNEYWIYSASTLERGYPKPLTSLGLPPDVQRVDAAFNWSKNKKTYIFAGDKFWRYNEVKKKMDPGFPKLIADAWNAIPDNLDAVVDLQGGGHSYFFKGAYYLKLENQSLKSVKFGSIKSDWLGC

[4] = biological target: MMP-8 (Homo sapiens, UniProt P22894); settings: cited from earlier work
[5] = biological target: T3, MMP-1 (Homo sapiens, UniProt P03956); settings: cited from earlier work
T3 sequence (P03956 100-469): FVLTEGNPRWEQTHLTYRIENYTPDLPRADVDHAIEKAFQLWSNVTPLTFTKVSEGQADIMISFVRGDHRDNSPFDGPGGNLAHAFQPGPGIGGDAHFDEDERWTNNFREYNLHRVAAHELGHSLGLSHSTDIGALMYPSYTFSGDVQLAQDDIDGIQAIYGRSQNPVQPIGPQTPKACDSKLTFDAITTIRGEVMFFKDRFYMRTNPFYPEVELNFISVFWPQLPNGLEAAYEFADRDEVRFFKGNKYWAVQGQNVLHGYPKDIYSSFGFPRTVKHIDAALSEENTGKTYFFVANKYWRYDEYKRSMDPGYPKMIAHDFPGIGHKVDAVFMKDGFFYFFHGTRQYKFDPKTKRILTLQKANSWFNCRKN

[6] = biological target: MMP-3 (Homo sapiens, UniProt P08254); settings: cited from earlier work
[7] = Hydrogel formation in buffer viewed under light microscope; settings: pH 4 general lab buffer or pH 9 K2HPO4/MgCl2 buffer (20 μL each)

Sequence of MMP-8 (P22894 101-467): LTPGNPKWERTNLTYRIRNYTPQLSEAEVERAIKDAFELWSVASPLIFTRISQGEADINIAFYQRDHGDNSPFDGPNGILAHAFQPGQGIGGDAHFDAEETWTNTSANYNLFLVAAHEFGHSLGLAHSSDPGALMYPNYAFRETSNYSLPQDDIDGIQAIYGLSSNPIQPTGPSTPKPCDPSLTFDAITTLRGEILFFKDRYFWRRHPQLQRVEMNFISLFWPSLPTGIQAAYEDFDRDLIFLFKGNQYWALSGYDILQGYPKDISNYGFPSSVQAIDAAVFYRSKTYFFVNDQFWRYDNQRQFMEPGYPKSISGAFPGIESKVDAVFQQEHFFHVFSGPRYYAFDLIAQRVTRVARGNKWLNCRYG
Sequence of MMP-3 (P08254 100-477): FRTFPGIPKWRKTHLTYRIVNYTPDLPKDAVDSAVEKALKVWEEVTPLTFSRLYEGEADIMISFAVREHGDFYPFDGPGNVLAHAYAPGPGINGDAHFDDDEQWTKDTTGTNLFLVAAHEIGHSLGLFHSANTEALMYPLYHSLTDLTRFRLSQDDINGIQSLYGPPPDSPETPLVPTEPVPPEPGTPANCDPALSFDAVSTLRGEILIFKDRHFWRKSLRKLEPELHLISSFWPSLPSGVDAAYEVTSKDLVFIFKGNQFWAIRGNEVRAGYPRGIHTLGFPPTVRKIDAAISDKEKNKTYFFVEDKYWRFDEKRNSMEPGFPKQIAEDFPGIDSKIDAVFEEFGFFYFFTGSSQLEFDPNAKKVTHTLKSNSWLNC
Sequence of MMP-9 (P14780 94-707): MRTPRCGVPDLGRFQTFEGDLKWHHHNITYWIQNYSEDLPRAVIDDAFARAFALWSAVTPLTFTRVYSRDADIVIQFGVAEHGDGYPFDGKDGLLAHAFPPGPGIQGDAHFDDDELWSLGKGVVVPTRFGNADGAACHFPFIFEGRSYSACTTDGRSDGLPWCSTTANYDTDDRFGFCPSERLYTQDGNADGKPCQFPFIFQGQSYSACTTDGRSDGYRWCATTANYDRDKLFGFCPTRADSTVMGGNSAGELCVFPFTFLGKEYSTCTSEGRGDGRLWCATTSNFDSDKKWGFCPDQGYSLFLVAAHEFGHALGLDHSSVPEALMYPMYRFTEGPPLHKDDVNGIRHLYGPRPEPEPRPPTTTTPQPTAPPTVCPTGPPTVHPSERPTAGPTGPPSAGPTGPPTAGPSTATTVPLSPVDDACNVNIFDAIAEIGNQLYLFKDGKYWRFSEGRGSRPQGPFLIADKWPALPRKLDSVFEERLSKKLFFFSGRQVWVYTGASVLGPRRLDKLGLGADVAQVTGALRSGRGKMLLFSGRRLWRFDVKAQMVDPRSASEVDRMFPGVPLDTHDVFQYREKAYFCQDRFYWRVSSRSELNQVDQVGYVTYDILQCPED

Row | Molecule | Relative rate MMP-7 [1] | Relative rate MMP-9 [2] | Relative rate MMP-2 [3] | Relative rate MMP-8 [4] | Relative rate MMP-1 [5] | Relative rate MMP-3 [6] | Hydrogel formation on contact with buffer [7]
1 | Gly-Pro-Gln-Gly#Val-Ala-Gly-Gln | 17 | 25 | 30 | 9.0 | 9.1 | 53 | 
2 | Gly-Pro-Gln-Tyr#Ile-Ala-Gly-Gln | 34 | 30 | 58 | 180 | 130 | 68 | 
3 | Gly-Pro-Gln-Gly#Leu-Ala-Gly-Gln | 300 | 80 | 88 | 180 | 130 | 110 | 
4 | Gly-Pro-Gln-Gly#Ile-Hyp-Gly-Gln | 8.0 | 11 | 32 | 1.5 | 7.3 | 42 | 
5 | Gly-Pro-Gln-Glv#Met-Ala-Gly-Gln | 89 | 170 | 230 | 84 | 110 | 60 | 
6 | CN(C)c1ccc(/N=N/c2ccc(S(=O)(=O)NCCCC[C@H](NC(=O)OCC3c4ccccc4-c4ccccc43)C(=O)O)cc2)cc1 [compound 4-c] |  |  |  |  |  |  | did not form a hydrogel
7 | Gly-Asn-Gln-Gly#Ile-Ala-Gly-Gln (GNQGIAGQ; printed: Gly-Asn-Gln-Gly; printed: Ile-Ala-Gly-Gln) | 25 | <5.0 | 60 | 45 | 17 | 68 | 
8 | Gly-Pro-Gln-Gly#Trp-Ala-Gly-Gln | <5.0 | <5.0 | <5.0 | 49 | <0.5 | 120 | 
9 | Gly-Pto-Met-Gly#Ile-Ala-Gly-Gln (IAGQ; printed: Ile-Ala-Gly-Gln) | 400 | 180 | 120 | 160 | 160 | 120 | 
10 | Gly-Pro-Gln-Gly#Ile-Glu-Gly-Gln | 86 | 130 | 85 | 59 | 35 | 58 | 
11 | Gly-Pro-Gln-Gly#Ile-Ala-Gly-Ala | 91 | 110 | 85 | 110 | 86 | 130 | 
12 | GIy-Pro-Gln-Gly4Ile-Arg-Gly-Gln | 270 | 200 | 180 | 170 | 180 | 250 | 
13 | Gly-Pro-Gln-Gly#Ile-Ala-Arg-Gln | 220 | 45 | 35 | 34 | 55 | 490 | 
14 | Gly-Pro-Gln-Gly#Glu-Ala-Gly-Gln | 8.0 | <5.0 | <5.0 | <0.5 | <0.5 | <0.5 | 
15 | Gly-Pro-Gln-Leu#Ile-Ala-Gly-Gln | 49 | 8.8 | 21 | 54 | 27 | 170 | 
16 | Gly-Pro-Gln-Val#Ile-Ala-GLy-Gln | <5.0 | <5.0 | <5.0 | 7.9 | 5.5 | 32 | 
17 | Gly-Pto-Arg-Gly#Ile-Ala-Gly-Gln | 13 | 83 | 160 | 32 | 17 | 99 | 
18 | Gly-Pro-Gln-Pro#Ile-Ala-Gly-Gln | 140 | 46 | 32 | 190 | 260 | 170 | 
19 | Gly-Pro-Gln-Gly#Tyr-Ala-Gly-Gln | 21 | 96 | 50 | 390 | 50 | 150 | 
20 | Gly-Pro-Gln-Gly#Ile-Leu-Gly-Gln | 250 | 240 | 400 | 400 | 430 | 280 | 
21 | Gly-Pro-Gln-Gly#Ile-Ala-Ala-Gln | 300 | 140 | 180 | 120 | 220 | 280 | 
22 | Gly-Pro-Gln-Gly#Ile-Trp-Gly-Gln | 330 | 140 | 310 | 930 | 840 | 280 | 
23 | Gly-Pro-Leu-Gly#Ile-Ala-Gly-Gln | 420 | 290 | 330 | 260 | 150 | 190 | 
24 | Gly-Pro-Gln-Gly#Ile-Ala-Val-Gln | 170 | 49 | 26 | 57 | 100 | 170 | 
25 | Gly-Pro-Gln-Gly#Ile-Ala-Ser-Gln | 150 | 130 | 320 | 58 | 91 | 230 | 
26 | Gly-Pro-Val-Gly#Ile-Ala-Gly-Gln | 57 | 110 | 130 | 30 | 32 | 160 | 
27 | Gly-Pro-Gln-Phe#Ile-Ala-Gly-Gln | 63 | 26 | 15 | 170 | 95 | 68 | 
28 | Gly-Pro-Gln-Met#Ile-Ain-Gly-Gln | 150 | 12 | 22 | 140 | 200 | 110 | 
29 | Gly-Pro-Gln-Gln#Ile-Ala-Gly-Gln | 180 | 13 | 25 | 150 | 140 | 140 | 
30 | Gly-Pro-Gln-Gly#Ser-Ala-Gly-Gln | 5.5 | <5.0 | 15 | 1.6 | 5.9 | 45 | 
